Experiments:
[1] = test system: platelet thrombi formed from human whole blood; test: in vitro thrombus consolidation under flow on Type I collagen; assay type: cell-based; settings: for effect of fibrin/thrombin inhibition on contraction of platelet thrombi (in words): whole blood, 1800 s-1, GPRP 280 μM in native blood, hirudin-anticoagulated, lepirudin 1600 U/ml + enoxaparine 400 U/ml
Procedure: Flow-based thrombus formation assays on a bovine fibrillar Type I collagen matrix were performed at 37° C. in the absence of fibrin. Briefly, […] (DMSO), Blebbistatin (+) (200 μM), Blebbistatin (−) (200 μM), EGTA/Mg^2+ (2 mM/1 mM), HA1077 (80 μM), H1152 (40 μM) or 2-APB (200 μM) (10 mins, 37° C.) prior to perfusion through fibrillar type I collagen-coated microcapillary tubes (2.0 mg/ml) at 1800 s^−1 for 5 mins. Thrombus formation was observed using an inverted Leica DMIRB microscope (Leica Microsystems, Wetzlar, Germany) with a 63× water objective (1.2 numeric aperture (NA)), and recorded in real-time using a Dage-MTI charge-coupled device (CCD) camera 300 ETRCX (Dage-MTI, Michigan City, Ind.).
Two-dimensional quantification of thrombus consolidation—Quantification of thrombus contraction was performed by ‘spiking’ whole blood with 3% DiIC12-labelled platelets prior to perfusion. Spiked whole blood was then perfused over collagen matrices as described above, and DIC/fluorescence images were recorded in real-time as described above, for off-line analysis. Studies examining the effect of 2-APB on consolidation were performed by perfusing untreated whole blood across microslides for 30 seconds to establish a nucleating thrombus, followed by perfusion of inhibitor treated blood. […] The distance between 2 fluorescently-labelled platelets in a given thrombus was measured in […] every 30 sec over 5 min. Results are expressed as percentage decrease in the distance between 2 platelets incorporated into a thrombus prior to 1 minute of flow, with the distance between platelets at 1 minute taken as 100%.
3D volumetric thrombus analysis—For analysis of thrombus volume, whole blood was labelled with DiIC12 (1 μM) prior to perfusion. Thrombi were formed as described above, and images captured in real-time using an inverted Leica DMIRB confocal microscope, with […] sections acquired every 30 seconds over 4-5 min. Analysis of thrombus volume was performed using Metamorph 6 software.

[2] = test system: thrombi in mesenteric post-capillary venules; test: intravital microscopy of thrombus growth and stability after vessel injury; assay type: in vivo, mice; settings: for mean reduction in thrombus size: local administration into the microcirculation after thrombus formation; for mean reduction in thrombus size / effect on thrombus stability and embolization in vivo (in words): needle puncture, no lepirudin; for stability of the primary hemostatic plug (in words): mice pretreated with lepirudin 50 mg/kg i.v., local infusion into formed thrombus; for effect on thrombus stability and embolization in vivo (in words): local microinjection after thrombus formation
Procedure: The development and consolidation of thrombi in response to vessel injury was monitored using intravital microscopy. C57BL6 or PAR4 deficient (15 g-18 g) mice were anaesthetised using sodium pentobarbitone (60 mg/kg), and the mesentery exteriorized through a midline abdominal incision. Body temperature was maintained during the procedure using an infrared heat lamp, and exposed mesenteric vessels (50-160 μm diameter) were hydrated using warm saline. Vessel injury was achieved either through vessel puncture using a microinjection needle (20-30 μm tip diameter) connected to a micromanipulator (Eppendorf), or through application of 6% FeCl3-soaked filter paper (8 sec). Accrual of platelets to the area of injury was recorded in real-time as described for in vitro flow assays (above). […] (25 mM stock solution, 2.5 μl total injection volume), or an equivalent volume of vehicle (DMSO), were locally infused into developing thrombi via the microinjection needle (release rate 2-3 μl/min, 3 cycles). To prevent fibrin generation, in some experiments, lepirudin (50 mg/kg) was administered via intravenous injection prior to induction of injury and subsequent injection of inhibitors. Complete abolition of fibrin formation at this concentration of lepirudin was confirmed by histology using Carstair's stain. The surface area of thrombi in vivo was measured using Image J, with analysis of every 5th frame (at 1 frame/sec) over 4-5 mins. Change in surface area was expressed as fold-increase or decrease over the original surface area (=1).

non-muscle myosin II = settings: read-out: IC50, inhibitor of non-muscle myosin II; cited from earlier work
[3] = test system: platelet-mediated fibrin clot retraction in citrated PRP; test: platelet-mediated fibrin clot retraction; assay type: cell-based, human; settings: thrombin 1 U/ml, 2-APB 200 μM, EGTA/Mg2+ 2 mM/1 mM, H1152 40 μM, HA1077 80 μM
Procedure: Washed platelets were prepared from acid-citrate dextrose (ACD)-anticoagulated whole blood, with the inclusion of Lepirudin (800 U/ml) in the Platelet Washing Buffer and Apyrase (0.02 U/ml) in the Tyrode's Buffer.
Platelet-mediated fibrin-dependent clot retraction was measured using citrated PRP^9,10. Results are expressed as, the percentage of serum remaining in the tube following clot removal, after subtracting the volumes obtained for c7E3 (negative control) samples.

[4] = test system: occlusive blood clot in the carotid artery; test: carotid artery occlusion model, clot lysis and vascular reperfusion; assay type: in vivo, mice; settings: regimens A-H of FIGS. 8 and 9, blood flow monitored 60 minutes
Procedure: Mice were anaesthetised and minor surgery performed to expose to the carotid artery and jugular vein. A Doppler flow probe was placed around the carotid artery to monitor blood flow through this blood vessel, and a catheter placed in the jugular vein to administer drugs. A blood clot was formed in the carotid artery of the mouse through the delivery of a small electric current (4 mA for 1.25 min^g), resulting in complete blockage of blood flow through the vessel (blood flow=0 mls/min), as measured by the flow probe. After vessel blockade was established, various combinations of t-PA, urokinase, heparin, hirudin, HA1077 and Y27632 were administered, using concentrations and regimens indicated (A-H in FIGS. 8 and 9) and examined for their efficacy to dissolve blood clots and restore blood flow. Blood flow was monitored in mice receiving each drug combination for a further 60 minutes, and blood flow measurements recorded using computer software.

[5] = H1152 40 μM, Blebbistatin (−) 200 μM, lepirudin-anticoagulated human whole blood, 1800 s-1
[6] = GPRP added to native whole blood, 1800 s-1

Compound: lepirudin
- effect of fibrin/thrombin inhibition on contraction of platelet thrombi (in words) [1]: underwent a prominent contractile phase
- thrombus stability in the absence of thrombin ([2]; wild type mice pretreated with lepirudin 50 mg/kg prior to vessel injury): thrombi were more unstable

Compound: Cc1ccc2c(c1)C(=O)C1(O)CCN(c3ccccc3)C1=N2 (stereo not drawn) [Blebbistatin]
- stability of thrombi formed in vitro (in words) [1, 5]: highly unstable platelet thrombi
- effect on thrombus contraction / consolidation (in words) ([1]; HA1077 80 μM, Blebbistatin (−) 200 μM, lepirudin-anticoagulated human whole blood, 1800 s-1): tight packing of platelets did not occur
- thrombus behaviour on cessation of administration ([2]; after stopping local administration): thrombi rapidly reformed
- mean reduction in thrombus size [2]: 38%
- stability of the primary hemostatic plug (in words) ([2]; listed as active enantiomer of blebbistatin): near complete embolization of the formed thrombus
- IC50 (non-muscle myosin II): ~4 µM

Compound: Cc1cncc2cccc(S(=O)(=O)N3CCCNC[C@@H]3C)c12.Cl.Cl [H1152, (S)-(+)-2-methyl-1-[(4-methyl-5-isoquinolinyl)sulfonyl]homopiperazin, 2HCl]
- stability of thrombi formed in vitro (in words) [1, 5]: less stable thrombi
- decrease in thrombus contraction ([1]; H1152 40 μM, lepirudin-anticoagulated human whole blood, 1800 s-1, after 5 mins perfusion): 88%
- fibrin clot retraction (in words) [3]: neither inhibitor had any significant effect
- mean reduction in thrombus size [2]: 34%
- effect on thrombus stability and embolization in vivo (in words) [2]: more effective than the IP3 receptor antagonist APB

Compound: O=C(O)CN(CCOCCOCCN(CC(=O)O)CC(=O)O)CC(=O)O [EGTA]
- reduction of the rate of thrombus contraction ([1]; EGTA/Mg2+ 2 mM/1 mM, lepirudin-anticoagulated human whole blood, 1800 s-1, at 5 mins perfusion): up to 52%
- fibrin clot retraction (in words) [3]: no significant inhibitory effect

Compound: Gly-Pro-Arg-Pro peptide [GPRP]
- formation of fibrin polymers [1, 6]: inhibited the formation of individual fibrin polymers
- platelet thrombus growth [1, 6]: no inhibitory effect
- effect of fibrin/thrombin inhibition on contraction of platelet thrombi (in words) [1]: unaltered

Compound: Cc1ccc2c(c1)C(=O)C1(O)CCN(c3ccccc3)C1=N2 (single isomer, unassigned) [inactive blebbistatin enantiomer]
- effect on thrombus stability and embolization in vivo (in words) [2]: no effect
- stability of the primary hemostatic plug (in words) [2]: no adverse effect

Compound: NCCOB(c1ccccc1)c1ccccc1 [2-APB, 2-aminoethoxydiphenyl borate]
- reduction of thrombus contraction ([1]; 2-APB 200 μM, perfused after 30 sec of untreated blood, lepirudin-anticoagulated human whole blood, 1800 s-1): 32%
- fibrin clot retraction (in words) [3]: abolished clot retraction

Compound: Cl.O=S(=O)(c1cccc2cnccc12)N1CCCNCC1 [HA1077, 1-(5-isoquinolinesulphonyl)-homopiperazine HCl]
- fibrin clot retraction (in words) [3]: neither inhibitor had any significant effect
- clot lysis and re-establishment of blood flow (in words) [4]: unable to lyse blood clots and re-establish blood flow

— patent US20110190270A1, “METHODS OF TREATING THROMBOEMBOLIC DISORDERS” (MONASH UNIVERSITY, priority 2008, published 2011)
